{
  "source": "patent US20180171304A1",
  "about": "“CONTINUOUSLY BIOPRINTED MULTILAYER TISSUE STRUCTURE” (ASPECT BIOSYSTEMS LTD., priority 2015, published 2018)",
  "test_system": "muscle tube",
  "details": "tube cultured for 14 days; contraction gradual over a 40 minute time period; FIG. 2",
  "text": "In one embodiment, described herein are multi-layered tubes of muscle tissue. The tubes are created using a layer-by-layer deposition process by which muscle cells are dispersed within a solidified biocompatible matrix and bioprinted in a continuous fiber. In one embodiment, the fiber is deposited in a ring-like pattern to form a layer. These layers are stacked to form tubes, the height of which may be varied in a controlled way by changing the number of layers. Preferably, the matrix composition is physiologically compatible such that it allows the muscle cells to fully differentiate into a contractile phenotype. At the time of bioprinting, the tube is not contractile. […]\nAfter bioprinting, the muscle structure must be submersed in cell culture media and placed in a cell culture incubator with temperature and carbon dioxide level control. […] In the preferred embodiment contraction and relaxation are measured by visual observation of changes in the diameter of the tube. […] Alternatively, a camera with an appropriate level of magnification could be positioned above the smooth muscle tube such that video footage of the tube from a top down perspective is recorded. […] The change in area, radius, diameter or circumference of the muscle tube may be quantified. […]",
  "data": [
    {"compound": "NCCc1c[nH]cn1", "note": "[histamine]", "values": [
      {"measurement": "contraction of muscle tube (smaller diameter in contracted state)", "value": "initiate contraction"}
    ]}
  ]
}
